Results as given in US20210147371A1, “OXADIAZOLINE DERIVATIVES” (Bayer Aktiengesellschaft, priority 2018, published 2021).
Read-outs that look alike come from different tables or passages of the source. Blank lines part the entries; values can stand above or below the compound they belong to.

Test: Log P by HPLC on reversed phase columns (EEC directive 79/831 Annex V.A8)
Type: physicochemical
Procedure: Measurement of Log P values was performed according to EEC directive 79/831 Annex V.A8 by HPLC (High Performance Liquid Chromatography) on reversed phase columns with the following methods: • [^a]
If more than one Log P value is available within the same method, all the values are given and separated by “+”.
Calibration was done with straight-chain alkan2-ones (with 3 to 16 carbon atoms) with known Log P values (measurement of Log P values using retention times with linear interpolation between successive alkanones). Lambda-max-values were determined using UV-spectra from 200 nm to 400 nm and the peak values of the chromatographic signals.

[1] = method [a]: LC-UV, acidic range, 0.1% formic acid in water and acetonitrile, compounds of formula (I), read-out: Log P
[2] = reversed phase HPLC columns, method [a]: LC-UV, acidic range, 0.1% formic acid in water and acetonitrile, compounds of formula (I), read-out: Log P

- chromatographic logP (reversed phase HPLC columns, method [a]: LC-UV, acidic range, 0.1% formic acid in water and acetonitrile, intermediates of formula (IV), read-out: LogP): 4.03
Compound: FC(F)(F)c1nc(-c2ccc3nn(Cc4ccccc4)cc3c2)no1 [IV-15, 2-Benzyl-5-[5-(trifluoromethyl)-1,2,4-oxadiazol-3-yl]-1H-indazole]

- chromatographic logP: 4.39
Compound: FC(F)(F)c1nc(-c2ccc3c(cnn3Cc3ccccc3)c2)no1 [IV-17, 1-Benzyl-5-[5-(trifluoromethyl)-1,2,4-oxadiazol-3-yl]-1H-indazole]

Further lines, the compound ahead of its results:

Compound: CN(C)C(=O)Oc1ccc(C2=NOC(C(F)(F)F)N2)cc1 (stereo not shown) [Compound I-03, 4-[5-(Trifluoromethyl)-4,5-dihydro-1,2,4-oxadiazol-3-yl]phenyl dimethylcarbamate]
- chromatographic logP [1]: 2.19

Compound: CC(=O)N1C(c2ccc(OC(=O)N(C)C)cc2)=NOC1C(F)(F)F (stereo not shown) [Compound I-16, 4-[Acetyl-5-(trifluoromethyl)-4,5-dihydro-1,2,4-oxadiazol-3-yl]phenyl dimethylcarbamate]
- chromatographic logP [1]: 2.62

Compound: FC(F)(F)C1NC(c2ccc3c(cnn3Cc3ccccc3)c2)=NO1 (stereo not shown) [Compound I-23, 1-Benzyl-5-[(trifluoromethyl)-4,5-dihydro-1,2,4-oxadiazol-3-yl]-2H-indazole]
- chromatographic logP [2]: 3

Compound: FC(F)(F)C1NC(c2ccc3nn(Cc4ccccc4)cc3c2)=NO1 (stereo not shown) [Compound I-24, 2-Benzyl-5-[(trifluoromethyl)-4,5-dihydro-1,2,4-oxadiazol-3-yl]-2H-indazole]
- chromatographic logP [2]: 2.69

Compound: CN(C)C(=O)Oc1ccc(-c2noc(C(F)(F)F)n2)cc1 [IV-05, 4-[5-(Trifluoromethyl)-1,2,4-oxadiazol-3-yl]phenyl dimethylcarbamate]
- chromatographic logP (method [a]: LC-UV, acidic range, 0.1% formic acid in water and acetonitrile, intermediates of formula (IV), read-out: LogP): 3.37
